SMILES strings stand for the structures.

For this assay, the target named is T1, EGFR T790M/L858R/C797S (Homo sapiens, UniProt P00533, C797S/L858R/T790M).
T1 construct: expressed in transfected cells; host or cells: BaF3 (murine pro-B) cells stably transduced with pCDH lentiviral vector, PGK promoter
T1 sequence (P00533 25-1210 T790M/C797S/L858R): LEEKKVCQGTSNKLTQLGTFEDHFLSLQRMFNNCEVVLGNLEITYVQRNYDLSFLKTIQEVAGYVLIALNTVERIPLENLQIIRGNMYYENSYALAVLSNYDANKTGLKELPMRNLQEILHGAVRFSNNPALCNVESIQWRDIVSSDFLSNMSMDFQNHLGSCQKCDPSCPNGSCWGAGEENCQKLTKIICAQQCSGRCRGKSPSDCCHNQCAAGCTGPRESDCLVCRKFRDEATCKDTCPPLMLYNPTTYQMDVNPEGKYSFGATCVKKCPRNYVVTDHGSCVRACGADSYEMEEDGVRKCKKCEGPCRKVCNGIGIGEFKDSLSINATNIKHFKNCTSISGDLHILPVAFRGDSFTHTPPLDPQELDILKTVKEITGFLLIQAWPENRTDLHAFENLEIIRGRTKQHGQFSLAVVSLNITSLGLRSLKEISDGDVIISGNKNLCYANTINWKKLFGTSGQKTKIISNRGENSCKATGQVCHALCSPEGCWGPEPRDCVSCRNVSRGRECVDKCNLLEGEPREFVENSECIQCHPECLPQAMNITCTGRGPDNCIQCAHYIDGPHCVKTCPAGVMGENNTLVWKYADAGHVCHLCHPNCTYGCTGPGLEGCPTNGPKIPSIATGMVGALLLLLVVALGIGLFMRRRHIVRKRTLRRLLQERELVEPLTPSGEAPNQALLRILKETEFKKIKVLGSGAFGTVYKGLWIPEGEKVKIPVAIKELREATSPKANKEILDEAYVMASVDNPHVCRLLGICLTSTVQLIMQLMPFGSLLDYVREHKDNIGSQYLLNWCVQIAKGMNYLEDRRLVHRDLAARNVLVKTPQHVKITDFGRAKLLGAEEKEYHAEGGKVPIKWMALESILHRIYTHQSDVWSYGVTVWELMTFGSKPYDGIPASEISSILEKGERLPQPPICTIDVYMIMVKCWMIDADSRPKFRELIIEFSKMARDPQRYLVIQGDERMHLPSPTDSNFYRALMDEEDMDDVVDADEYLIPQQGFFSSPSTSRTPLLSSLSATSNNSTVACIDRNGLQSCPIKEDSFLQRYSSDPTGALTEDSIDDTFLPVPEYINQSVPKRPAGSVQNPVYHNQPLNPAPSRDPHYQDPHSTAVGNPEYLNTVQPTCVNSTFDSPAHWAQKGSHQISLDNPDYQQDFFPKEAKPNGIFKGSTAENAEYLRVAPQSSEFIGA
Nature of the assay: EGFR Degradation Assay (Cellular), FRET quantification of total EGFR. The assay is classed as cell-based. The settings on record: BaF3 EGFR mutant cell line (EGFR T790M/L858R/C797S); 4-hour incubation; total EGFR FRET kit; top concentration 1 μM, 11 points; read-out: IC50 [nM] mutant EGFR degradation. On the procedure:
EGFR Degradation Assay (Cellular)
The BaF3 parental line was purchased from DSMZ and grown in RPMI media supplemented with 10% FBS and 10 ng/mL interleukin 3 (IL-3) (Thermo Fisher Scientific). EGFR mutants ([…]) were cloned into the pCDH lentiviral vector (SystemBio) under the control of a PGK promoter and confirmed by DNA sequencing. The resulting gene expression vector for each mutant was mixed with packaging vectors and cotransfected into 2×10E6 HEK293T cells (ATCC) in 10 mL of DMEM media to generate lentiviral particles according to the manufacturers protocol (Origene).
Three days post-transfection, the viral supernatant was harvested and filtered. In one well of a 12-well plate, 0.5 mL of viral supernatant was added to 2E6 Ba/F3 cells contained in 1.5 mL of RPMI media including 10% FBS, 10 ng/mL IL-3, and 5 μg/mL polybrene (Invitrogen). The plate was centrifuged at 2,000 rpm for 1 hour at room temperature and infected cells were kept in a tissue culture incubator overnight at 37° C. The cells were washed once in fresh BaF3 media and reseeded at 0.5E6 cells/well of a 12-well plate in media supplemented with 0.5 μg/mL puromycin. The cells were maintained in this media for 3 weeks. IL-3-independent, EGFR mutant transformed cells were routinely maintained in RPMI medium supplemented with 10% FBS.
RPMI 1640 no-phenol red medium and fetal bovine serum (FBS) were purchased from Gibco (Grand Island, N.Y., USA). EGFR total kit and EGFR phospho-Y1068 kit were purchased from Cisbio (Bedford, Mass., USA). BaF3 EGFR mutant cell lines (EGFR T790M/L858R/C797S) cell line was generated in house, according to the protocol reported above. Cell culture flasks and 384-well microplates were acquired from VWR (Radnor, Pa., USA).
EGFR degradation was determined based on quantification of FRET signal using EGFR total kit. The FRET signal detected correlates with total EGFR protein level in cells. Briefly, test compounds were added to the 384-well plate from a top concentration of 1 μM with 11 points, half log titration in quadruplicates. Then, BaF3 EGFR mutant cell lines (EGFR T790M/L858R/C797S) were added into 384-well plates at a cell density of 10000 cells per well. The plates were kept at 37° C. with 5% CO2 for 4 hours. After 4-hour incubation, 4× lysis buffer was added to the cells, and then microplate was agitated on plate shaker at 500 rpm for 30 minutes at room temperature. Next, total EGFR antibody solution was added to the cells and the cells were incubated for another 4 hours at room temperature. Finally, FRET signal was acquired on EnVision™ Multilabel Reader (PerkinElmer, Santa Clara, Calif., USA). The cells treated in the absence of the test compound were the negative control and lysis buffer with antibody solution only were the positive control.
For `CO[C@H]1CCN(c2nccc(Nc3cc4c(cn3)c(C(=O)NC3CCN(CCC5CCN(c6ccc7c(c6)C(=O)N(C6CCC(=O)NC6=O)C7=O)CC5)CC3)cn4C3CCCC3)n2)C[C@H]1F` (mixture of isomers) [Example 15, 1-Cyclopentyl-N-[1-[2-[1-[2-[(3RS)-2,6-dioxo-3-piperidyl]-1,3-dioxo-isoindolin-5-yl]-4-piperidyl]ethyl]-4-piperidyl]-6-[[2-[(3R,4S)-3-fluoro-4-methoxy-1-piperidyl]pyrimidin-4-yl]amino]pyrrolo[3,2-c]pyridine-3-carboxamide], the DC50 turned out to be 49 nM.

`CO[C@@H]1CCN(c2nccc(Nc3cc4c(cn3)c(C(=O)NC3CCN(CCCCCCNc5cccc6c5C(=O)N(C5CCC(=O)NC5=O)C6=O)CC3)nn4C(C)C)n2)C[C@@H]1F` (mixture of isomers) [Example 21, N-[1-[6-[[2-[(3RS)-2,6-Dioxo-3-piperidyl]-1,3-dioxo-isoindolin-4-yl]amino]hexyl]-4-piperidyl]-6-[[2-[(3S,4R)-3-fluoro-4-methoxy-1-piperidyl]pyrimidin-4-yl]amino]-1-isopropyl-pyrazolo[4,3-c]pyridine-3-carboxamide]: the DC50 is 2 nM.

On to `COC1CCN(c2nccc(Nc3cc4c(cn3)c(C(=O)NC3CCN(CCCCCCNc5cccc6c5C(=O)N(C5CCC(=O)NC5=O)C6=O)CC3)cn4C(C)C)n2)CC1` (racemic) [Example 2, N-[1-[6-[[2-[(3RS)-2,6-Dioxo-3-piperidyl]-1,3-dioxo-isoindolin-4-yl]amino]hexyl]-4-piperidyl]-1-isopropyl-6-[[2-(4-methoxy-1-piperidyl)pyrimidin-4-yl]amino]pyrrolo[3,2-c]pyridine-3-carboxamide], for which the DC50 came to 132 nM. `CO[C@H]1CCN(c2nccc(Nc3cc4c(cn3)c(C(=O)NC3CCN(CCCC5CN(c6cccc7c6C(=O)N(C6CCC(=O)NC6=O)C7=O)C5)CC3)cn4C(C)C)n2)C[C@H]1F` (mixture of isomers) [Example 24, N-[1-[3-[1-[2-[(3RS)-2,6-Dioxo-3-piperidyl]-1,3-dioxo-isoindolin-4-yl]azetidin-3-yl]propyl]-4-piperidyl]-6-[[2-[(3R,4S)-3-fluoro-4-methoxy-1-piperidyl]pyrimidin-4-yl]amino]-1-isopropyl-pyrrolo[3,2-c]pyridine-3-carboxamide]: the DC50 amounted to 5 nM.

As to `CO[C@H]1CCN(c2nccc(Nc3cc4c(cn3)c(C(=O)NC3CCN(CCCCCCNc5cccc6c5C(=O)N(C5CCC(=O)NC5=O)C6=O)CC3)cn4C(C)C)n2)C[C@H]1F` (mixture of isomers) [Example 7, N-[1-[6-[[2-[(3RS)-2,6-Dioxo-3-piperidyl]-1,3-dioxo-isoindolin-4-yl]amino]hexyl]-4-piperidyl]-6-[[2-[(3R,4S)-3-fluoro-4-methoxy-1-piperidyl]pyrimidin-4-yl]amino]-1-isopropyl-pyrrolo[3,2-c]pyridine-3-carboxamide], the DC50 was determined as 70 nM.

For the compound `COC1CCN(c2nccc(Nc3cc4c(cn3)c(C(=O)NC3CCN(C(=O)CCCCCNc5cccc6c5C(=O)N(C5CCC(=O)NC5=O)C6=O)CC3)cn4C(C)C)n2)CC1` (racemic) [Example 1, N-[1-[6-[[2-[(3RS)-2,6-Dioxo-3-piperidyl]-1,3-dioxo-isoindolin-4-yl]amino]hexanoyl]-4-piperidyl]-1-isopropyl-6-[[2-(4-methoxy-1-piperidyl)pyrimidin-4-yl]amino]pyrrolo[3,2-c]pyridine-3-carboxamide], the DC50 was 59 nM. Under `CO[C@H]1CCN(c2nccc(Nc3cc4c(cn3)c(C(=O)NC3CCN(CCC5CN(c6cccc7c6C(=O)N(C6CCC(=O)NC6=O)C7=O)C5)CC3)cn4C(C)C)n2)C[C@H]1F` (mixture of isomers) [Example 23, N-[1-[2-[1-[2-[(3RS)-2,6-Dioxo-3-piperidyl]-1,3-dioxo-isoindolin-4-yl]azetidin-3-yl]ethyl]-4-piperidyl]-6-[[2-[(3R,4S)-3-fluoro-4-methoxy-1-piperidyl]pyrimidin-4-yl]amino]-1-isopropyl-pyrrolo[3,2-c]pyridine-3-carboxamide] stands 8 nM.

(Values after patent US20200308171A1, “BIFUNCTIONAL INHIBITORS WITH EGFR HAVING A E3 UBIQUITIN LIGASE MOIETY” (Hoffmann-La Roche Inc., priority 2017, published 2020).)
